Data on 12 compounds can be found in patent US6949536B2, “Sulfonylbenzene compounds as anti-inflammatory/analgesic agents” (Pfizer, Inc., priority 1998, dated 2005).

A word on the melting point: it is the temperature, or range, at which the solid turns liquid.

Structures are written as SMILES. Counter-ions that a name gives are not always drawn.

`Cc1cc(S(N)(=O)=O)ccc1-n1nc(C(F)(F)F)cc1-c1ccc(-c2ccco2)cc1` (as salt: hydrochloride) [Example 145, 4-[5-[4-(2-Furyl)phenyl]-3-(trifluoromethyl)-1H-pyrazol-1-yl]-3-methylbenzenesulfonamide] gave a melting point of 87 to 89 °C.

The compound `Cc1ccc(-c2ccc(S(C)(=O)=O)cc2)n1-c1ccc(-c2ccsc2)cc1` [Example 46, 2-Methyl-5-[4-(methylsulfonyl)phenyl]-1-[4-(3-thienyl)phenyl]-1H-pyrrole] had a melting point of 187 to 188 °C.

Turning to `NS(=O)(=O)c1ccc(-n2nc(C(F)(F)F)cc2-c2ccc(-c3ncco3)cc2)cc1` (as salt: hydrochloride) [Example 98, 4-[5-[4-(1,3-Oxazol-2-yl)phenyl]-3-(trifluoromethyl)-1H-pyrazol-1-yl]benzenesulfonamide], the melting point is 215 to 217 °C.

Take `Cc1cc(-n2nc(C(F)(F)F)cc2-c2ccc(-c3cscn3)cc2)ccc1S(C)(=O)=O` (as salt: hydrochloride) [Example 101, 4-{4-[1-[3-Methyl-4-(methylsulfonyl)phenyl]-3-(trifluoromethyl)-1H-pyrazol-5-yl]phenyl}-1,3-thiazole]: the melting point lay within 147 to 149 °C.

As to `Cc1cc(-c2cc(C(F)(F)F)nn2-c2ccc(S(C)(=O)=O)cc2)ccc1-c1cscn1` (as salt: hydrochloride) [Example 125, 4-{2-Methyl-4-[1-[4-(methylsulfonyl)phenyl]-3-(trifluoromethyl)-1H-pyrazol-5-yl]phenyl}-1,3-thiazole], the melting point was 140 to 142 °C.

Regarding `Cc1cc(-c2cc(C(F)(F)F)nn2-c2ccc(S(C)(=O)=O)cc2)ccc1-c1ccco1` (as salt: hydrochloride) [Example 31, 1-[4-(Methylsulfonyl)phenyl]-5-[4-(2-furyl)-3-methylphenyl]-3-(trifluoromethyl)-1H-pyrazole], the melting point is 174 to 176 °C.

Turning to `CS(=O)(=O)c1ccc(-n2nc(C(F)(F)F)cc2-c2ccc(-c3ccoc3)cc2)cc1` [Example 20, 1-[4-(Methylsulfonyl)phenyl]-5-[4-(3-furyl)phenyl]-3-trifluoromethyl-1H-pyrazole], the melting point is 165 to 166 °C.

In turn, `Cc1cc(-c2cc(C(F)(F)F)nn2-c2ccc(S(N)(=O)=O)cc2)ccc1-c1cocn1` (as salt: hydrochloride) [Example 116, 4-[5-[3-Methyl-4-(1,3-oxazol-4-yl)phenyl]-3-(trifluoromethyl)-1H-pyrazol-1-yl]benzenesulfonamide] came in with a melting point of 112 to 114 °C.

`CONC(=O)c1cc(-c2ccc(-c3ccco3)cc2)n(-c2ccc(S(C)(=O)=O)c(F)c2)n1` (as salt: hydrochloride) [Example 134, N-Methoxy-1-[3-fluoro-4-(methylsulfonyl)phenyl]-5-[4-(2-furyl)phenyl]-1H-pyrazole-3-carboxamide] registered a melting point of 126 to 128 °C.

For `COc1cc(-c2cc(C(F)(F)F)nn2-c2ccc(S(C)(=O)=O)cc2)ccc1-c1cocn1` (as salt: hydrochloride) [Example 111, 4-{2-Methoxy-4-[1-[4-(methylsulfonyl)phenyl]-3-(trifluoromethyl)-1H-pyrazol-5-yl]phenyl}-1,3-oxazole], the melting point was 171 to 173 °C.

In turn, `CS(=O)(=O)c1ccc(-n2cc(C(F)(F)F)nc2-c2ccc(-c3cscn3)cc2)cc1F` [Example 153, 1-[3-Fluoro-4-(methylsulfonyl)phenyl]-2-[4-(4-thiazolyl)phenyl]-4-trifluoromethyl-1H-imidazole] displayed a melting point of 112.5 to 115 °C.

For `Cc1cc(-n2nc(C(F)(F)F)cc2-c2ccc(-c3ccco3)cc2)ccc1S(C)(=O)=O` (as salt: hydrochloride) [Example 157, 5-[4-(2-Furyl)phenyl]-1-[3-methyl-4-(methylsulfonyl)phenyl]-3-(trifluoromethyl)-1H-pyrazole], the melting point was 135 to 139 °C.
